Data: the supplement of paper PMC10702517
± gives the standard deviation.

Columns and labels:
[1] = chemical recovery from spiked human plasma; higher = better extraction; conditions: pooled human plasma
[2] = chemical recovery by SPE of plasma after PDMS sampling; higher = better extraction; conditions: pooled human plasma, extraction method: HLB SPE of plasma after PES
[3] = chemical recovery into PDMS from spiked human plasma; higher = better extraction; conditions: pooled human plasma, extraction method: PES with PDMS
[4] = extraction method: SPE only (HLB 96-well), PES comparison experiment
[5] = extraction method: PES+SPE (3 d PDMS equilibration then HLB SPE)
[6] = extraction method: SPE only (HLB 96-well)
[7] = extraction method: solvent precipitation (ACN + hexane)
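Throughout, for chemical recovery by SPE of plasma after PDMS sampling: over 400 spiked chemicals quantified by LC-HRMS or GC-HRMS via internal standard calibration, recovery relative to spike mix added to unspiked plasma extract to correct matrix effects.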

Structure (SMILES) | chemical recovery [1, 4] | chemical recovery by SPE of plasma ([2]; equilibration time (d): 1) | chemical recovery by SPE of plasma ([2]; equilibration time (d): 3) | chemical recovery by SPE of plasma ([2]; equilibration time (d): 6) | chemical recovery into PDMS ([3]; equilibration time (d): 3) | chemical recovery [1, 5] | chemical recovery [1, 6] | chemical recovery [1, 7] | chemical recovery into PDMS ([3]; equilibration time (d): 1) | chemical recovery into PDMS ([3]; equilibration time (d): 6)
CCCCCCCCCCCCCCN(C)C [N,N-Dimethyltetradecylamine] | 39.3 ± 8.7% | 0.241 ± 0.23% | 0.0666 ± 0.015% | 0.0207 ± 0.085% | 0.0161 ± 0.022% |  |  |  |  | 
c1ccc2sc(NC3CCCCC3)nc2c1 [N-Cyclohexyl-2-benzothiazole-amine] | 42.4 ± 6.5% | 0.591 ± 0.065% | 0.595 ± 0.073% | 0.297 ± 0.037% | 34 ± 3% | 98.9 ± 11% | 51.9 ± 3.6% | 74.8 ± 3.3% | 32.4 ± 2.2% | 34.2 ± 1.6%
CCNS(=O)(=O)c1ccccc1C [N-Ethyl-o-toluenesulfonamide] | 52.6 ± 6.1% | 19.8 ± 2.8% | 25.7 ± 2.5% | 18.8 ± 3% | 23.2 ± 2.6% | 52.7 ± 7.9% | 46.9 ± 1.4% | 68.2 ± 2.2% | 23.5 ± 1.3% | 26.3 ± 2.6%
c1ccc(Nc2cccc3ccccc23)cc1 [N-Phenyl-1-naphthylamine] | 18.7 ± 4.1% | 2.23 ± 1.6% | 2.7 ± 0.69% | 1.86 ± 0.51% | 6.12 ± 3.5% |  | 45.8 ± 14% | 83.2 ± 5.3% | 4.16 ± 1.3% | 6.6 ± 1.1%
CCOC(=O)C1=C(C)NC(C)=C(C(=O)OC)C1c1cccc([N+](=O)[O-])c1 (centres undefined) [Nitrendipin] | 51.5 ± 5.5% | 7.61 ± 0.89% | 5.18 ± 0.19% | 2.81 ± 0.16% | 17.4 ± 3.6% | 37.1 ± 7.9% | 42.25 ± 0.22% | 52.1 ± 2.9% | 13.4 ± 0.56% | 18.6 ± 1.1%
C#C[C@]1(O)CC[C@H]2[C@@H]3CCC4=CC(=O)CC[C@@H]4[C@H]3CC[C@@]21C [Norethindrone] | 54.2 ± 6.8% |  | 4.09 ± 7.1% | 3.48 ± 6% | 46.1 ± 2.3% |  |  |  | 40.1 ± 2.1% | 47.6 ± 1.2%
c1ccc2c(c1)[nH]c1cnccc12 [Norharmane] | 48 ± 6.7% | 3.67 ± 0.43% | 2.75 ± 0.47% | 1.79 ± 0.061% | 28.3 ± 0.84% | 25.1 ± 5.9% | 39.6 ± 7.7% | 77.7 ± 5.3% | 24.8 ± 1.2% | 29 ± 1.6%
CNC(=O)CSP(=O)(OC)OC [Omethoate] | 40.1 ± 8.6% |  | 13.5 ± 2.3% |  | 5.92 ± 3.5% |  | 12.4 ± 5.1% |  | 4.04 ± 3.2% | 5.94 ± 4.2%
CCCN(CCC)c1c([N+](=O)[O-])cc(S(N)(=O)=O)cc1[N+](=O)[O-] [Oryzalin] | 49.6 ± 5.5% | 39.2 ± 5.2% | 33.9 ± 3% | 27.7 ± 1.7% | 10 ± 0.76% |  |  |  | 6.21 ± 0.56% | 11.1 ± 1.2%
O=C1Nc2ccc(Cl)cc2C(c2ccccc2)=NC1O (centres undefined) [Oxazepam] | 46.6 ± 6% | 29.1 ± 4% | 30.4 ± 2.4% | 27.7 ± 1.9% | 3.65 ± 0.36% | 41.3 ± 2.3% | 38 ± 3.2% | 73.9 ± 3.5% | 1.81 ± 0.18% | 3.9 ± 0.52%
Clc1ccc(Cl)c(-c2ccccc2Cl)c1 [PCB18] | 10 ± 1.9% | 0.716 ± 0.48% | 0.693 ± 0.67% | 0.249 ± 0.43% | 50.3 ± 10% |  |  |  | 48.2 ± 2.5% | 46.5 ± 10%
Clc1ccc(Cl)c(-c2cccc(Cl)c2Cl)c1 [PCB44] | 18.4 ± 4% | 1.35 ± 0.87% | 1.34 ± 0.13% | 1.42 ± 0.29% | 90.2 ± 12% | 44 ± 11% | 3.94 ± 0.74% |  | 83.5 ± 2.1% | 99.1 ± 11%
Clc1ccc(Cl)c(-c2cc(Cl)c(Cl)cc2Cl)c1 [PCB101] | 14 ± 2.6% | 1.75 ± 1.3% | 1.62 ± 0.22% | 1.45 ± 0.38% | 98.4 ± 14% | 54.76 ± 0.33% | 1.78 ± 0.57% | 91.2 ± 10% | 88.4 ± 5.7% | 96.9 ± 3.5%
